From ChEMBL document CHEMBL1154059, “Synthesis and biological evaluation of novel 4,5-bis(dialkylaminoalkyl)-substituted acridines as potent telomeric G-quadruplex ligands” (Eur J Med Chem, 2009)
pIC50: −log10 of the molar value.

How the values were obtained:
Nucleic Acid [1] = experiment: Binding affinity to human telomeric DNA G-quadruplex assessed as change in melting temperature at 20 uM by FRET assay; assay type: nucleic-acid assay
[2] = target: Telomerase reverse transcriptase (Homo sapiens, UniProt O14746); experiment: Inhibition of human telomerase in HT1080 cells by TRAP assay
Nucleic Acid [3] = experiment: Binding affinity to human telomeric DNA G-quadruplex assessed as change in melting temperature at 5 uM by FRET assay; assay type: nucleic-acid assay
Nucleic Acid [4] = experiment: Binding affinity to human telomeric DNA G-quadruplex assessed as change in melting temperature at 10 uM by FRET assay; assay type: nucleic-acid assay
Nucleic Acid [5] = experiment: Binding affinity to human telomeric DNA G-quadruplex assessed as change in melting temperature at 1 uM by FRET assay; assay type: nucleic-acid assay

Telomerase reverse transcriptase, sequence (O14746 whole entry): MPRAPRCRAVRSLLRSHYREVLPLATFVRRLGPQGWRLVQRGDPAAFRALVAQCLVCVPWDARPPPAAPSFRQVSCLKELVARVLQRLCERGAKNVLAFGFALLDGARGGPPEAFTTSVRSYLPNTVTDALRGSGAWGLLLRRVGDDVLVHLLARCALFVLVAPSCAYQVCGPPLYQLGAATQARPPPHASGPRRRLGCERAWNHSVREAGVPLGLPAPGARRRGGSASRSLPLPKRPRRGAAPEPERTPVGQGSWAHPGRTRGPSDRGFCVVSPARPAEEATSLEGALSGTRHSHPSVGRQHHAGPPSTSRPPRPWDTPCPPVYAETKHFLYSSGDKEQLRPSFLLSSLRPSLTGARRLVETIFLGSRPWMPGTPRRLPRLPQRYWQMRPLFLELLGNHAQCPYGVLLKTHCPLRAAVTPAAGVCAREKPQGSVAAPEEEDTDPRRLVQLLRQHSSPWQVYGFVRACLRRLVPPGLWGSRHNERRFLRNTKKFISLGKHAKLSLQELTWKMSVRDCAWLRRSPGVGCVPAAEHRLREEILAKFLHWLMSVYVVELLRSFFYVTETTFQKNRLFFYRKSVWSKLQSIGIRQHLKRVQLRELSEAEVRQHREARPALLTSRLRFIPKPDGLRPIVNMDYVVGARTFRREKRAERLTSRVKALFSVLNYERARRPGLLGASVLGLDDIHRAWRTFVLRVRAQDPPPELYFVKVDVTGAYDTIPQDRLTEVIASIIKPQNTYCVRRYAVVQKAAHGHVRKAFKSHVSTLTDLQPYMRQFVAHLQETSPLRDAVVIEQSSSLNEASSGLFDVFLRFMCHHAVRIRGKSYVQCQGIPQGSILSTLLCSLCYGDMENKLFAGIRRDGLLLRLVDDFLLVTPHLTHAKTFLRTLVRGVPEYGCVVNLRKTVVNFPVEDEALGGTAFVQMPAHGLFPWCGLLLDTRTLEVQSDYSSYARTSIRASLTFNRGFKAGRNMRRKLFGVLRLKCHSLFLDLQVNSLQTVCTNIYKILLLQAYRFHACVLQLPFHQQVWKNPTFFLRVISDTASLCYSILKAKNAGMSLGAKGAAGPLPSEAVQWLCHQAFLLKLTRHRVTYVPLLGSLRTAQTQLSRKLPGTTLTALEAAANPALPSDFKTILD

CCN(CC)CC(=O)NCc1cccc2cc3cccc(CNC(=O)CN(CC)CC)c3nc12
ΔTm (Nucleic Acid [1]): 2.4 °C

CN(C)c1ccc(Nc2c3ccc(NC(=O)CCN4CCCC4)cc3nc3cc(NC(=O)CCN4CCCC4)ccc23)cc1
pIC50 [2]: 7.05 | ΔTm (Nucleic Acid [3]): 34.7 °C | ΔTm (Nucleic Acid [4]): 41.1 °C | ΔTm (Nucleic Acid [5]): 29.1 °C

C[N+]1(CC(=O)NCc2cccc3cc4cccc(CNC(=O)C[N+]5(C)CCCC5)c4nc23)CCCC1
ΔTm (Nucleic Acid [1]): 9.8 °C | pIC50 [2]: 4.57 | ΔTm (Nucleic Acid [3]): 4.3 °C | ΔTm (Nucleic Acid [4]): 7.4 °C | ΔTm (Nucleic Acid [5]): 0.3 °C

C[N+](C)(C)CC(=O)NCc1cccc2cc3cccc(CNC(=O)C[N+](C)(C)C)c3nc12
ΔTm (Nucleic Acid [1]): 16.7 °C | pIC50 [2]: 5.14 | ΔTm (Nucleic Acid [3]): 5.9 °C

O=C(CN1CCCC1)NCc1cccc2cc3cccc(CNC(=O)CN4CCCC4)c3nc12
ΔTm (Nucleic Acid [1]): 2.6 °C | pIC50 [2]: < 4.52 | ΔTm (Nucleic Acid [3]): 1.4 °C

O=C(CCN1CCCCC1)NCc1cccc2cc3cccc(CNC(=O)CCN4CCCCC4)c3nc12
ΔTm (Nucleic Acid [1]): 10.4 °C | pIC50 [2]: < 4.52 | ΔTm (Nucleic Acid [3]): 6.6 °C | ΔTm (Nucleic Acid [4]): 7.3 °C | ΔTm (Nucleic Acid [5]): 2.2 °C

CCN(CC)CCC(=O)NCc1cccc2cc3cccc(CNC(=O)CCN(CC)CC)c3nc12
ΔTm (Nucleic Acid [1]): 10.7 °C | ΔTm (Nucleic Acid [3]): 7.2 °C | ΔTm (Nucleic Acid [4]): 9.1 °C | ΔTm (Nucleic Acid [5]): 2.6 °C

CN1CCN(CCC(=O)NCc2cccc3cc4cccc(CNC(=O)CCN5CCN(C)CC5)c4nc23)CC1
ΔTm (Nucleic Acid [1]): 4.6 °C | pIC50 [2]: < 4.52 | ΔTm (Nucleic Acid [3]): 0.5 °C | ΔTm (Nucleic Acid [4]): 2.6 °C | ΔTm (Nucleic Acid [5]): 0 °C

NCc1cccc2cc3cccc(CN)c3nc12
ΔTm (Nucleic Acid [1]): 7.3 °C | pIC50 [2]: < 4.52 | ΔTm (Nucleic Acid [5]): 0 °C

O=C(CCCN1CCCC1)NCc1cccc2cc3cccc(CNC(=O)CCCN4CCCC4)c3nc12
ΔTm (Nucleic Acid [1]): 16.4 °C | pIC50 [2]: 4.89 | ΔTm (Nucleic Acid [3]): 8.8 °C | ΔTm (Nucleic Acid [4]): 11.9 °C | ΔTm (Nucleic Acid [5]): 3 °C

C[N+]1(CC(=O)NCc2cccc3cc4cccc(CNC(=O)C[N+]5(C)CCCCC5)c4nc23)CCCCC1
ΔTm (Nucleic Acid [1]): 12.6 °C | pIC50 [2]: 4.52 | ΔTm (Nucleic Acid [3]): 6.8 °C | ΔTm (Nucleic Acid [4]): 8.8 °C | ΔTm (Nucleic Acid [5]): 2.6 °C

CN(C)CCNCc1cccc2cc3cccc(CNCCN(C)C)c3nc12
ΔTm (Nucleic Acid [1]): 10.2 °C | pIC50 [2]: 5.25 | ΔTm (Nucleic Acid [3]): 4 °C

O=C(CN1CCCCC1)NCc1cccc2cc3cccc(CNC(=O)CN4CCCCC4)c3nc12
ΔTm (Nucleic Acid [1]): 14.6 °C | ΔTm (Nucleic Acid [3]): 0.6 °C | ΔTm (Nucleic Acid [5]): 0 °C

c1cnc(NCc2cccc3cc4cccc(CNc5ncccn5)c4nc23)nc1
ΔTm (Nucleic Acid [1]): 0 °C

O=C(CCCN1CCCCC1)NCc1cccc2cc3cccc(CNC(=O)CCCN4CCCCC4)c3nc12
ΔTm (Nucleic Acid [1]): 10.2 °C | pIC50 [2]: 4.92 | ΔTm (Nucleic Acid [3]): 3.7 °C | ΔTm (Nucleic Acid [4]): 8.1 °C | ΔTm (Nucleic Acid [5]): 1.3 °C

C[N+]1(CCC(=O)NCc2cccc3cc4cccc(CNC(=O)CC[N+]5(C)CCCC5)c4nc23)CCCC1
ΔTm (Nucleic Acid [1]): 12.6 °C | pIC50 [2]: 5.40 | ΔTm (Nucleic Acid [3]): 6.8 °C | ΔTm (Nucleic Acid [4]): 8.7 °C | ΔTm (Nucleic Acid [5]): 2.3 °C

C[N+](C)(C)CCC(=O)NCc1cccc2cc3cccc(CNC(=O)CC[N+](C)(C)C)c3nc12
ΔTm (Nucleic Acid [1]): 11 °C | pIC50 [2]: 5.52 | ΔTm (Nucleic Acid [3]): 5.7 °C | ΔTm (Nucleic Acid [4]): 8.2 °C | ΔTm (Nucleic Acid [5]): 2.1 °C

CN(C)CC(=O)NCc1cccc2cc3cccc(CNC(=O)CN(C)C)c3nc12
ΔTm (Nucleic Acid [1]): 3.6 °C | pIC50 [2]: < 4.52

CN(C)CCC(=O)NCc1cccc2cc3cccc(CNC(=O)CCN(C)C)c3nc12
ΔTm (Nucleic Acid [1]): 8.1 °C | pIC50 [2]: < 4.52 | ΔTm (Nucleic Acid [3]): 5 °C

O=C(CCN1CCCC1)NCc1cccc2cc3cccc(CNC(=O)CCN4CCCC4)c3nc12
ΔTm (Nucleic Acid [1]): 7.6 °C | pIC50 [2]: 5.22 | ΔTm (Nucleic Acid [3]): 2.8 °C | ΔTm (Nucleic Acid [4]): 4.3 °C | ΔTm (Nucleic Acid [5]): 0 °C

CN(C)CCCNCc1cccc2cc3cccc(CNCCCN(C)C)c3nc12
ΔTm (Nucleic Acid [1]): 17.7 °C | pIC50 [2]: 6.82 | ΔTm (Nucleic Acid [3]): 6.7 °C

c1ccc(CNCc2cccc3cc4cccc(CNCc5ccccc5)c4nc23)cc1
ΔTm (Nucleic Acid [1]): 4.8 °C
